Results published in patent US20230027066A1 (Urovant Sciences GmbH, priority 2019, published 2023).

Test system: men and women with overactive bladder
Test: Phase 3 study of vibegron 75 mg vs placebo and tolterodine ER 4 mg, 12 weeks, efficacy (voiding and urine volume diary)
Format: in vivo, human
Conditions: for Urgency 50% responders, Active - Placebo CMH Difference / Patients with at Least 50% Reduction in Urgency Episodes, Adjusted (%) / Patients with at Least 50% Reduction in Urgency Episodes, Adjusted n / Patients with at Least 50% Reduction in Urgency Episodes, Unadjusted (%) / Patients with at Least 50% Reduction in Urgency Episodes, Unadjusted n: Dry population; for Urgency Episodes, Week 12 CFB Mean: descriptive statistics; for Micturitions: LS Mean (95% CI): Table 32, week 12
Procedure: Enrollment of patients included individuals with OAB Wet (those with UUI, the involuntary loss of urine accompanied by urgency) and OAB Dry (those without UUI). A total of 1,518 patients were randomized across 215 study sites into one of three groups for a 12-week treatment period.
The study consisted of a Screening Period (1 to 5 weeks), a single-blind Run-in Period (2 weeks), a randomized double-blind Treatment Period (12 weeks), and a Follow-up Period (4 weeks).
Tolterodine ER 4 mg was the active control. […] Between the Baseline and Week 12 Visits, patients had study assessments at Week 4 and Week 8.
The Patient Voiding Diary was used by participants (via the eDiary or paper Diary) to record the frequency of daily OAB symptoms including all micturitions, urgency, incontinence, and main reason for incontinence by selecting the respective box for each symptom occurring during the course of a given day and night.
Urine volume data were collected separately by patients using the Urine Volume component of the eDiary, or the paper Urine Volume Chart. The Urine Volume Chart is a tool used in clinical practice and clinical investigation to assess voiding functions over a 24-hour period and is regarded as a useful instrument in the investigation of patients with voiding symptoms. Urine volume may be collected during any one (1) of the 7 Diary Days prior to the visit, and it should be recorded for ˜24 hours starting from the time the patient gets up for the day and continues until the time the patient gets up for the day on the next day.
For the purpose of this study, the number of micturitions was defined as the number of times a patient has voided in the toilet as indicated on the Patient Voiding Diary. Average daily micturitions were calculated using the daily entries in the Patient Voiding Diary, which was completed over the 7 days prior to each study visit. Average daily number of micturitions were calculated as the total number of micturitions that occurred on a Complete Diary Day divided by the number of Complete Diary Days in the Patient Voiding Diary. A complete diary day required confirmation by the patient in the Patient Voiding Diary that all voids and leakages had been recorded for the diary day. Baseline was defined as the average number of micturitions occurring during the last evaluable diary prior to the Baseline Visit.
The number of UUI episodes was defined as the number of times a patient had checked “urge” as the reason for accidental urine leakage. Average daily UUI episodes at each study visit were calculated in the same manner as described above for the micturition endpoint. The UUI endpoint were analyzed using only OAB Wet patients.
For the analysis of the co-primary endpoints (change from baseline in average number of daily micturitions at Week 12 and change from baseline in average number of daily urge urinary incontinence episodes at Week 12, and placebo adjustment of each), a mixed model for repeated measure (MMRM) with restricted maximum likelihood estimation was used. This model corrects for dropout and accounts for the fact that measurements taken on the same patient over time tend to be correlated by using all available information on patients within the same covariate set to derive an estimate of the treatment effect for a dropout-free population. The analysis model for each efficacy endpoint includes terms for treatment, visit, OAB Type (Wet vs Dry), Sex (Female vs Male), Region (US vs Rest of World), baseline score, and interaction of visit by treatment.
Primary inferences were drawn from treatment differences for the changes from baseline derived from the MMRM models at Week 12. As part of secondary objectives, the treatment differences for each post baseline visit were also derived using the same MMRM model. […]

[1] = No prior anticholinergic use during the prior 12 months
[2] = No prior mirabegron use during the prior 12 months
[3] = Overall, events of Events/Censored
[4] = Prior anticholinergic use during the prior 12 months
[5] = Prior mirabegron use during the prior 12 months
[6] = Week 2, events of Events/Censored
[7] = Week 4, events of Events/Censored

## Cc1ccc(O)c([C@H](CCN(C(C)C)C(C)C)c2ccccc2)c1 [Tolterodine ER, tolterodine, reference compound]
Baseline to Week 2
  Urgency 50% responders, Active - Placebo CMH Difference: 2.8
Baseline to Week 4
  Patients with at Least 50% Reduction in Urgency Episodes, Adjusted (%): 20.6%
  Patients with at Least 50% Reduction in Urgency Episodes, Adjusted n: 20
  Patients with at Least 50% Reduction in Urgency Episodes, Unadjusted (%): 25.5%
  Patients with at Least 50% Reduction in Urgency Episodes, Unadjusted n: 25
  Urgency 50% responders, Active - Placebo CMH Difference: 3.5
Baseline to Week 8
  Patients with at Least 50% Reduction in Urgency Episodes, Adjusted (%): 28.5%
  Patients with at Least 50% Reduction in Urgency Episodes, Adjusted n: 28
  Patients with at Least 50% Reduction in Urgency Episodes, Unadjusted (%): 30.6%
  Patients with at Least 50% Reduction in Urgency Episodes, Unadjusted n: 30
  Urgency 50% responders, Active - Placebo CMH Difference: 8.7
Baseline to Week 12
  Patients with at Least 50% Reduction in Urgency Episodes, Adjusted (%): 29.0%
  Patients with at Least 50% Reduction in Urgency Episodes, Adjusted n: 28
  Patients with at Least 50% Reduction in Urgency Episodes, Unadjusted (%): 32.7%
  Patients with at Least 50% Reduction in Urgency Episodes, Unadjusted n: 32
  Urgency 50% responders, Active - Placebo CMH Difference: 5.8
Males with BPH
  Urgency Episodes, Week 12 CFB Mean: −3.29
Males without BPH
  Urgency Episodes, Week 12 CFB Mean: −2.32
No Prior ACH Use in last 12 Mo.
  Urgency Episodes, Week 12 CFB Mean: −2.62
No Prior B3 Agonist Use in last 12 Mo.
  Urgency Episodes, Week 12 CFB Mean: −2.56
[1]
  Micturitions, 12-week change: −1.8
  UUI Episodes, 12-week change: −1.9
[2]
  Micturitions, 12-week change: −1.8
  UUI Episodes, 12-week change: −1.8
Overall
  Overall Time to First 50% Decrease in Urgency Episodes, 25th Percentile: 4.3 weeks
  Overall Time to First 50% Decrease in Urgency Episodes, 50th Percentile: 12.6 weeks
  Overall Time to First 50% Decrease in Urgency Episodes, Median (95% CI): 12.6 (12.3 to 12.9) weeks
  Overall Time to First 100% Decrease in UUI Episodes, 25th Percentile: 12.1 weeks
  Overall Time to First 100% Decrease in UUI Episodes, 75th Percentile: 16.0 weeks
  Overall Time to First 100% Decrease in UUI Episodes, Median (95% CI): 13.1 (12.7 to 16.0) weeks
  Urgency Episodes, Week 12 CFB Mean: −2.57
  Micturitions: LS Mean (95% CI): −0.3 (−0.6 to 0.1)
[3]
  First 50% Decrease in Urgency Episodes, Events: 187/230
  First 100% Decrease in UUI Episodes, Events: 93/226
Prior ACH Use in last 12 Mo.
  Urgency Episodes, Week 12 CFB Mean: −2.23
Prior B3 Agonist Use in last 12 Mo.
  Urgency Episodes, Week 12 CFB Mean: −2.72
[4]
  Micturitions, 12-week change: −1.52
  UUI Episodes, 12-week change: −0.98
[5]
  Micturitions, 12-week change: −1.30
  UUI Episodes, 12-week change: −0.65
Age <65 years
  Micturitions: LS Mean (95% CI): −0.2 (−0.6 to 0.2)
Age ≥65 years
  Micturitions: LS Mean (95% CI): −0.3 (−0.8 to 0.2)
Age ≥75 years (posthoc analysis)
  Micturitions: LS Mean (95% CI): −0.4 (−1.4 to 0.6)
Females
  Micturitions: LS Mean (95% CI): −0.3 (−0.7 to 0.0)
Males
  Micturitions: LS Mean (95% CI): 0.1 (−0.7 to 0.9)
Non-White
  Micturitions: LS Mean (95% CI): −0.1 (−0.8 to 0.6)
OAB Type: Dry
  Micturitions: LS Mean (95% CI): −0.3 (−1.0 to 0.3)
OAB Type: Wet
  Micturitions: LS Mean (95% CI): −0.3 (−0.6 to 0.1)
Region: Non-US
  Micturitions: LS Mean (95% CI): 0.4 (−0.6 to 1.4)
Region: US
  Micturitions: LS Mean (95% CI): −0.3 (−0.7 to 0.0)
White
  Micturitions: LS Mean (95% CI): −0.3 (−0.7 to 0.0)
Week 2
  Average Daily Number of Total Incontinence, Mean (SD): 2.75 (2.743)
  Average daily number of urgency episodes, Mean (SD): 6.30 (3.989)
  Average volume voided per micturition, Active - Placebo LS Mean Difference: 10.2 mL
  Change from Baseline in Average Daily Number of Total Incontinence, LS Mean (SE): −1.3 (0.15)
  Change from baseline in average daily number of urgency episodes, LS Mean: −1.5
  Change from baseline in average volume voided per micturition, LS Mean (SE): 12.5 (3.20) mL
  Estimated Incidence of Subjects with 50% Decrease from Baseline (urgency episodes): 18.0
  Estimated Incidence of Subjects with 100% Decrease from Baseline (UUI episodes): 5.6
  Total Incontinence, Active - Placebo LS Mean Difference (SE): −0.5 (0.15)
  Urgency episodes, Active - Placebo LS Mean Difference: −0.6
[6]
  First 50% Reduction in Urgency Episodes, Events: 75/342
  First 100% Reduction in UUI Episodes, Events: 18/301
Week 2, vibegron 75 mg, tolterodine ER 4 mg
  Average volume voided per micturition, Week 2 Mean (SD): 156.7 (71.23) mL
Week 4
  Average Daily Number of Total Incontinence, Mean (SD): 2.54 (2.784)
  Average daily number of urgency episodes, Mean (SD): 6.00 (4.097)
  Average volume voided per micturition, Active - Placebo LS Mean Difference: 8.9 mL
  Average volume voided per micturition, Week 4 Mean (SD): 160.2 (72.76) mL
  Change from Baseline in Average Daily Number of Total Incontinence, LS Mean (SE): −1.6 (0.15)
  Change from baseline in average daily number of urgency episodes, LS Mean: −1.8
  Change from baseline in average volume voided per micturition, LS Mean (SE): 13.3 (3.39) mL
  Estimated Incidence of Subjects with 50% Decrease from Baseline (urgency episodes): 19.4
  Estimated Incidence of Subjects with 100% Decrease from Baseline (UUI episodes): 7.6
  Total Incontinence, Active - Placebo LS Mean Difference (SE): −0.5 (0.15)
  Urgency episodes, Active - Placebo LS Mean Difference: −0.7
[7]
  First 50% Reduction in Urgency Episodes, Events: 81/336
  First 100% Reduction in UUI Episodes, Events: 24/295
Week 8
  Average Daily Number of Total Incontinence, Mean (SD): 2.20 (2.673)
